Test results reported in patent publication US11180462B2, “Microbiocidal oxadiazole derivatives” (SYNGENTA PARTICIPATIONS AG, priority 2015, dated 2021).

Assays:
[1] = system: Puccinia recondita f. Sp. Tritici; test: Fungicidal activity against Puccinia recondita f. sp. tritici / wheat / leaf disc preventative (brown rust); format: in vivo; details: foliar, 200 ppm in the applied formulation, wheat leaf segments, preventative, compared to untreated control leaf disks, read-out: disease control
Outline: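 200 ppm spray on wheat cv. Kanzler leaf segments; spore inoculation +1 day; 19° C., 75% rh, 12 h/12 h light cycle; single rating of % control vs untreated at 7 to 9 days.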

[2] = system: Glomerella lagenarium (Colletotrichum lagenarium); test: Fungicidal activity against Glomerella lagenarium (Colletotrichum lagenarium) liquid culture / cucumber / preventative (anthracnose); format: cell-based; details: Colletotrichum orbiculare; 20 ppm in the applied formulation; liquid culture (PDB), growth inhibition measured photometrically after 3 to 4 days; compared to untreated control; read-out: disease control
Outline: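 Percent activity against the untreated check was derived from photometric growth measurements made 2 to 7 days after conidia in potato dextrose broth were combined with compound at 20 ppm. Cultures were kept dark at 24 °C and 96% humidity.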

Phakopsora Pachyrhizi = test: Fungicidal activity against Phakopsora pachyrhizi / soybean / leaf disc preventative (Asian soybean rust); format: in vivo; details: foliar, 200 ppm in the applied formulation, soybean leaf disks, compared to untreated control leaf disks, read-out: disease control
Outline: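 Scored 12 to 14 days post-application as percent control relative to untreated check discs, rust spores were sprayed under the disc one day after compound treatment. Incubation: 20°C, 75% rh, first 24–36 h in darkness, then 12 h daily light; discs kept on water agar.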

[3] = system: Puccinia recondita f. Sp. Tritici; test: Fungicidal activity against Puccinia recondita f. sp. tritici / wheat / leaf disc curative (brown rust); format: in vivo; details: foliar, 24 h, 200 ppm in the applied formulation, wheat leaf segments, curative (applied 1 day after inoculation), compared to untreated control leaf disks, read-out: disease control
Outline: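 Inoculate cv. Kanzler segments on agar; hold dark, 19° C, 75% RH. Spray diluted formulated compound at day 1. Incubate 12 h light/12 h dark, same temperature and humidity; score % control vs untreated 6–8 days later.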

SMILES | melting point [°C] | pest or weed control at 200 ppm [1] [%] | inhibition of growth at 20 ppm [2] [%] | pest or weed control at 200 ppm (Phakopsora Pachyrhizi) [%] | pest or weed control at 200 ppm [3] [%]
CON(Cc1ccc(-c2noc(C(F)(F)F)n2)cc1)C(=O)NC1(C)CC1 [Compound 3.46, 1-methoxy-3-(1-methylcyclopropyl)-1-[[4-[5-(trifluoromethyl)-1,2,4-oxadiazol-3-yl]phenyl]methyl]urea] | 93 to 97 | ≥ 80 | ≥ 80 | ≥ 80 | ≥ 80
CON(Cc1ccc(-c2noc(C(F)(F)F)n2)cc1)C(=O)NCC(F)(F)F [Compound 3.38, 1-methoxy-3-(2,2,2-trifluoroethyl)-1-[[4-[5-(trifluoromethyl)-1,2,4-oxadiazol-3-yl]phenyl]methyl]urea] | 95 to 98 | ≥ 80 | ≥ 80 | ≥ 80 | ≥ 80
CON(Cc1ccc(-c2noc(C(F)(F)F)n2)cc1)C(=O)NCC1CC1 [Compound 3.6, 3-(cyclopropylmethyl)-1-methoxy-1-[[4-[5-(trifluoromethyl)-1,2,4-oxadiazol-3-yl]phenyl]methyl]urea] | 77 to 81.4 | ≥ 80 | ≥ 80 | ≥ 80 | ≥ 80
CON(Cc1ccc(-c2noc(C(F)(F)F)n2)cc1)C(=O)NCC#N [Compound 3.39, 3-(cyanomethyl)-1-methoxy-1-[[4-[5-(trifluoromethyl)-1,2,4-oxadiazol-3-yl]phenyl]methyl]urea] | 155 to 158 | ≥ 80 | ≥ 80 | ≥ 80 | ≥ 80
CON(Cc1ccc(-c2noc(C(F)(F)F)n2)cc1)C(=O)/C=C/c1ccccc1 [Compound 1.5, (E)-N-methoxy-3-phenyl-N-[[4-[5-(trifluoromethyl)-1,2,4-oxadiazol-3-yl]phenyl]methyl]-prop-2-enamide] | 94 to 99 | – | ≥ 80 | ≥ 80 | –
CON(Cc1ccc(-c2noc(C(F)(F)F)n2)cc1)C(=O)NCC(=O)N(C)C [Compound 3.51, 2-[[methoxy-[[4-[5-(trifluoromethyl)-1,2,4-oxadiazol-3-yl]phenyl]methyl]-carbamoyl]amino]-N,N-dimethyl-acetamide] | 98 to 101 | ≥ 80 | ≥ 80 | ≥ 80 | ≥ 80
CON(Cc1ccc(-c2noc(C(F)(F)F)n2)cc1)C(=O)C(NC(=O)C1CC1)C(C)C (stereo not drawn) [Compound 1.54, N-[1-(methoxy-[[4-[5-(trifluoromethyl)-1,2,4-oxadiazol-3-yl]phenyl]methyl]carbamoyl]-2-methyl-propyl]-cyclopropane-carboxamide] | 104.4 to 109 | ≥ 80 | ≥ 80 | ≥ 80 | ≥ 80
CCC(=O)N(Cc1ccc(-c2noc(C(F)(F)F)n2)cc1)C1COC1 [Compound 1.604, N—(Oxetan-3-yl)-N-[[4-[5-(Trifluoromethyl)-1,2,4-Oxadiazol-3-yl]Phenyl]Methyl]Propanamide] | 88.8 to 93.5 | ≥ 80 | ≥ 80 | ≥ 80 | ≥ 80
CON(Cc1ccc(-c2noc(C(F)(F)F)n2)cc1)C(=O)N[C@@H](C)C1CC1 [Compound 3.41, 3-[(1S)-1-cyclopropylethyl]-1-methoxy-1-[[4-[5-(trifluoromethyl)-1,2,4-oxadiazol-3-yl]phenyl]methyl]urea] | 99 to 102 | ≥ 80 | ≥ 80 | ≥ 80 | ≥ 80
CCOC(=O)C1(NC(=O)N(Cc2ccc(-c3noc(C(F)(F)F)n3)cc2)OC)CC1 [Compound 3.48, ethyl 1-[[methoxy-[[4-[5-(trifluoromethyl)-1,2,4-oxadiazol-3-yl]phenyl]methyl]-carbamoyl]amino]-cyclopropanecarboxylate] | 93 to 97 | ≥ 80 | ≥ 80 | ≥ 80 | ≥ 80
CCON(Cc1ccc(-c2noc(C(F)(F)F)n2)cc1)C(=O)OC [Compound 2.5, methyl N-ethoxy-N-[[4-[5-(trifluoromethyl)-1,2,4-oxadiazol-3-yl]phenyl]methyl]-carbamate] | 50.6 to 53 | – | ≥ 80 | ≥ 80 | ≥ 80
CCC(=O)N(C)C(C#N)c1ccc(-c2noc(C(F)(F)F)n2)cc1 (stereo not drawn) [Compound 1.611, N-[cyano-[4-[5-(trifluoromethyl)-1,2,4-oxadiazol-3-yl]phenyl]methyl]-N-methyl-propanamide] | 75 to 76 | ≥ 80 | ≥ 80 | ≥ 80 | ≥ 80
CON(C)C(=O)N(O)Cc1ccc(-c2noc(C(F)(F)F)n2)cc1 [Compound 3.29, 1-hydroxy-3-methoxy-3-methyl-1-[[4-[5-(trifluoromethyl)-1,2,4-oxadiazol-3-yl]phenyl]methyl]urea] | 96.3 to 100.5 | ≥ 80 | ≥ 80 | ≥ 80 | ≥ 80
CON(Cc1ccc(-c2noc(C(F)(F)F)n2)cc1)C(N)=O [Compound 3.32, 1-methoxy-1-[[4-[5-(trifluoromethyl)-1,2,4-oxadiazol-3-yl]phenyl]methyl]urea] | 112.2 to 114.7 | ≥ 80 | ≥ 80 | ≥ 80 | ≥ 80
COC(=O)N(O)Cc1ccc(-c2noc(C(F)(F)F)n2)cc1 [Compound 2.24, methyl N-hydroxy-N-[[4-[5-(trifluoromethyl)-1,2,4-oxadiazol-3-yl]phenyl]methyl]-carbamate] | 73 to 75.1 | ≥ 80 | ≥ 80 | ≥ 80 | ≥ 80
O=C(C1CC1)N(Cc1ccc(-c2noc(C(F)(F)F)n2)cc1)C1COC1 [Compound 1.605, N-(oxetan-3-yl)-N-[[4-[5-(trifluoromethyl)-1,2,4-oxadiazol-3-yl]phenyl]methyl]-cyclopropane-carboxamide] | 89.5 to 94 | ≥ 80 | ≥ 80 | ≥ 80 | ≥ 80
CON(Cc1ccc(-c2noc(C(F)(F)F)n2)cc1)C(=O)NC1COC1 [Compound 3.55, 1-methoxy-3-(oxetan-3-yl)-1-[[4-[5-(trifluoromethyl)-1,2,4-oxadiazol-3-yl]phenyl]methyl]urea] | 97 to 100 | ≥ 80 | ≥ 80 | ≥ 80 | ≥ 80
CON(Cc1ccc(-c2noc(C(F)(F)F)n2)c(F)c1)C(=O)c1ccccc1Cl [Compound 1.581, 2-chloro-N-[[3-fluoro-4-[5-(trifluoromethyl)-1,2,4-oxadiazol-3-yl]phenyl]methyl]-N-methoxy-benzamide] | 89 to 95 | ≥ 80 | ≥ 80 | ≥ 80 | –
CON(C)C(=O)N(Cc1ccc(-c2noc(C(F)(F)F)n2)cc1)OC [Compound 3.3, 1,3-dimethoxy-1-methyl-3-[[4-[5-(trifluoromethyl)-1,2,4-oxadiazol-3-yl]phenyl]methyl]urea] | 74 to 77 | ≥ 80 | ≥ 80 | ≥ 80 | ≥ 80
CCC(=O)NCC(=O)N(Cc1ccc(-c2noc(C(F)(F)F)n2)cc1)OC [Compound 1.793, N-[2-[methoxy-[[4-[5-(trifluoromethyl)-1,2,4-oxadiazol-3-yl]phenyl]methyl]-amino]-2-oxo-ethyl]propanamide] | 115.3 to 117.8 | ≥ 80 | ≥ 80 | – | ≥ 80
CON(Cc1ccc(-c2noc(C(F)(F)F)n2)cc1)C(=O)NCC1CC1(F)F (stereo not drawn) [Compound 3.103, 3-[(2,2-difluorocyclopropyl)-methyl]-1-methoxy-1-[[4-[5-(trifluoromethyl)-1,2,4-oxadiazol-3-yl]phenyl]methyl]urea] | 81 to 84 | ≥ 80 | ≥ 80 | – | ≥ 80
